Here are results for six compounds from patent US9937227B2, “Humanin, analogs and cancer treatment methods and uses thereof” (LOS ANGELES BIOMEDICAL RESEARCH INSTITUTE AT HARBOR-UCLA …, priority 2014, dated 2018).

The subject of data set [1] is germ cells in seminiferous tubules. In words: DOX-induced germ cell apoptosis in mouse seminiferous tubule cultures ex vivo (TUNEL). Particulars: 12 hours. It is filed as cell-based. The method, then:
A total of 15 young adult (12-13 week-old) mice were used for these ex vivo studies. The animals were sacrificed with a 5% pentobarbital (200 mg/Kg) IP injection. Testes were dissected and after removing the tunica albuginea, seminiferous tubules isolated from testes were cut into small segments under a dissecting microscope and light and dark segments were separated by dissection. Ten to twelve segments were placed (2 mm in length) in each well on a six well plate with 2 ml serum free Ham F-10 culture medium (GIBCO, Life Technologies, Thermo Fisher Scientific Corp., Carlsbad, Calif.) with the following treatments: control (Con, n=10), heat (43° C., 15 minutes, used as a positive control, n=10); HN 10 μg/mL (n=9); DOX 10 mcM (Dox10, n=10); and DOX 10 mcM+Humanin 10 μg/mL (Dox10+HN, n=10). For these experiments, n represents the total number of times the treatment was repeated using different animals. After 12 hours of incubation at 34° C. the seminiferous tubules from each treatment group were used to make “squashed” seminiferous tubule samples on a slide for TUNEL (TdT-mediated dUTP nick-end labeling) assay to detect germ cell apoptosis (Erkkila, et al., 1997; Toppari & Parvinen, 1985). To quantify the rate of germ cell apoptosis under a light microscope at 400× magnification, a square grid fitted within the eyepiece provided a reference area of 62,500 μm^2. The TUNEL positive apoptotic germ cells within the frame of grid were counted in 4 segments of seminiferous tubules in each group. The incidence of germ cell apoptosis was expressed as the number of apoptotic germ cells per mm^2.
A total of 15 mice were used for ex vivo studies. The animals were sacrificed and seminiferous tubules isolated from testes were cut into small segments under a dissecting microscope to identify light (early stages I-IV and late stages XI-XII) of the seminiferous epithelium) and dark (middle stages VII-VIII) segments. […] To quantify the rate of germ cell apoptosis, the squashed segments of seminiferous tubules were examined with an American Optical Microscope (Scientific Instruments, Buffalo, N.Y.) with a 40× objective and a 10× eyepiece lens. […] The TUNEL positive apoptotic germ cells within the frame of grid were counted in 4 segments of seminiferous tubules in each group. The incidence of germ cell apoptosis was expressed as the number of apoptotic germ cells per mm^2.

Data set [2] deals with male germ cells. It is filed as in vivo. Particulars: single IP; HN, HN-S7A, HN-C8P, HN-L12A 40 mg/Kg BW; HNG, HNG-F6A 5 mg/Kg BW; 24 hours. The method, then:
For the HN analog experiments, male mice were divided into seven groups (n=4-5 per group) and received one of the following treatments and sacrificed after 24 hours: 1) vehicle (control); 2) a single intra-peritoneal (IP) injection of HN peptide [HN, 40 mg/Kg body weight (BW)]; 3) a single IP injection of CP (CP, 200 mg/Kg BW); 4) IP injection of CP and HN (CP+HN); 5) a single IP injection of each HN analog (HNG 5 mg/Kg BW, HNG-F6A 5 mg/Kg BW, HN-S7A 40 mg/Kg BW, HN-C8P 40 mg/Kg BW, or HN-L12A 40 mg/Kg BW); 6) IP injection of CP and each HN analog (CP+HNG, HNG-F6A, HN-S7A, HN-C8P, or HN-L12A); and 7) IP injection of CP+HN+HN analog (HN-S7A, HN-C8P, or HN-L12A; to assess whether the analogs has enhancing or inhibitory effect on HN).
To facilitate testicular fixation by using a whole-body perfusion technique, all animals were injected with heparin (130 IU/100 g BW, IP) 15 min before a lethal injection of sodium pentobarbital (200 mg/kg BW, IP) (Lue Y H, et al., 1999). One testis was removed and weighed after perfusion with saline. Portions of testicular parenchyma were snap frozen in liquid nitrogen, and stored at −80 C for Western blotting. The other testis was fixed by vascular perfusion with Bouin's solution, and processed with routine paraffin embedding for in situ detection of apoptosis.
Detection of apoptotic cells was performed in Bouin's'-fixed, paraffin-embedded testicular sections by the terminal deoxynucleotidyl transferase (TdT)-mediated deoxy-UTP nick end labeling (TUNEL) technique (Sinha Hikim A P, et al., 1997) using an ApopTag-peroxidase kit (Chemicon International, Inc., Temecula, Calif.). Enumeration of the Sertoli cell nuclei with distinct nucleoli and apoptotic germ cell population was quantified at stages I-IV (early stages), stages VII-VIII (middle stages) and stages XI-XII (late stages) of the seminiferous epithelial cycle using an Olympus BH-2 microscope (New Hyde Park, N.Y.). Stages were identified according to the criteria proposed by Russell et al for paraffin sections (Russell L, 1977). The rate of germ cell apoptosis (apoptotic index, AI) was expressed as the number of apoptotic germ cells per Sertoli cells (Sinha Hikim A P, et al., 1997).

Data set [3] deals with male germ cells. Particulars: testicular cross sections, 24 hours; HN 40 mg/Kg or CP 200 mg/Kg single IP. The method, then:
Young adult mice (12-13 weeks) were randomly divided into 4 groups with 4 or 5 mice per group and received an IP injection: control (Con) (saline), HN (40 mg/Kg BW), CP (200 mg/Kg BW), and the combination of CP+HN. These experiments were repeated four times. In the CP+HN group, mice received an injection of HN followed by an injection of CP about 15 minutes later. Twenty-four hours after injections animals were sacrificed using 5% pentobarbital (200 mg/kg BW) IP injection. Blood was collected and one testis was removed, weighed and frozen in liquid nitrogen. The mouse was next perfused with saline and then subsequently perfuse-fixed with Bouin's solution as previously described and apoptosis was assessed by TUNEL assay (Lue, et al., 2009).
For detection of apoptosis in testicular sections, the paraffin embedded testis tissue was cut into 5 micron sections and stained with the TdT-mediated dUTP nick-end labeling assay (TUNEL Apoptosis Detection Kit, Millipore, Billerica, Mass.) to detect apoptosis of germ cells in the testis (Lue, et al., 2009). Testicular sections assayed by TUNEL were examined under a light microscope and the apoptotic germ cells were blindly and manually counted. The seminiferous tubules in the testis section under the microscope were grouped as stages IX-IV (early-late stages of spermatogenesis) and V-VIII (middle stages of spermatogenesis). Germ cell apoptosis was quantified as the number of seminiferous tubules containing apoptotic spermatogonia, spermatoctyes, round spermatids and spermatozoa per 100 seminiferous tubules (Drumond, et al., 2011).

The subject of data set [4] is testosterone. Particulars: with or without EDS pre-treatment.

Structures can show the parent of a compound that is named as a salt. Peptide text beside a SMILES is read from it.

For `COc1cccc2c1C(=O)c1c(O)c3c(c(O)c1C2=O)C[C@@](O)(C(=O)CO)C[C@@H]3O[C@H]1C[C@H](N)[C@H](O)[C@H](C)O1` [DOX, doxorubicin hydrochloride], the “germ cell apoptosis compared with control” value in data set [1] (HN 10 μg/mL alone or DOX 10 μM (high dose) alone, hydrochloride) is reported as “significantly higher number of apoptotic germ cells”; in data set [1] (HN 10 μg/mL alone or DOX 10 μM (high dose) alone, listed as doxorubicin, hydrochloride), “significantly increased apoptosis”; in data set [1] (doxorubicin 1 μM (low dose)), “increased apoptosis but did not reach statistical difference”.

Take `CC[C@H](C)[C@H](NC(=O)[C@H](CCC(=O)O)NC(=O)[C@H](CO)NC(=O)[C@@H](NC(=O)[C@H](CC(C)C)NC(=O)[C@H](CC(C)C)NC(=O)[C@H](CC(C)C)NC(=O)[C@H](CC(C)C)NC(=O)[C@@H]1CCCN1C(=O)[C@H](CO)NC(=O)[C@H](Cc1ccccc1)NC(=O)CNC(=O)[C@H](CCCNC(=N)N)NC(=O)[C@@H]1CCCN1C(=O)[C@H](C)NC(=O)[C@@H](N)CCSC)[C@@H](C)O)C(=O)N[C@@H](CC(=O)O)C(=O)N[C@@H](CC(C)C)C(=O)N1CCC[C@H]1C(=O)N[C@H](C(=O)N[C@@H](CCCCN)C(=O)N[C@@H](CCCNC(=N)N)C(=O)N[C@@H](CCCNC(=N)N)C(=O)N[C@@H](C)C(=O)O)C(C)C` [HN-C8P] (H-MAPRGFSPLLLLTSEIDLPVKRRA-OH; N-terminus and C-terminus assumed): the “spontaneous germ cell apoptosis, peptide alone” value (“spontaneous germ cell apoptosis” below) in data set [2] was “did not change”.

With `CC[C@H](C)[C@H](NC(=O)[C@H](CCC(=O)O)NC(=O)[C@H](CO)NC(=O)[C@@H](NC(=O)[C@H](C)NC(=O)[C@H](CC(C)C)NC(=O)[C@H](CC(C)C)NC(=O)[C@H](CC(C)C)NC(=O)[C@H](CS)NC(=O)[C@H](CO)NC(=O)[C@H](Cc1ccccc1)NC(=O)CNC(=O)[C@H](CCCNC(=N)N)NC(=O)[C@@H]1CCCN1C(=O)[C@H](C)NC(=O)[C@@H](N)CCSC)[C@@H](C)O)C(=O)N[C@@H](CC(=O)O)C(=O)N[C@@H](CC(C)C)C(=O)N1CCC[C@H]1C(=O)N[C@H](C(=O)N[C@@H](CCCCN)C(=O)N[C@@H](CCCNC(=N)N)C(=O)N[C@@H](CCCNC(=N)N)C(=O)N[C@@H](C)C(=O)O)C(C)C` [HN-L12A] (H-MAPRGFSCLLLATSEIDLPVKRRA-OH; N-terminus and C-terminus assumed), the “spontaneous germ cell apoptosis” value in data set [2] is given as “did not change”.

Consider `CC[C@H](C)[C@H](NC(=O)[C@H](CCC(=O)O)NC(=O)[C@H](CO)NC(=O)[C@@H](NC(=O)[C@H](CC(C)C)NC(=O)[C@H](CC(C)C)NC(=O)[C@H](CC(C)C)NC(=O)[C@H](CC(C)C)NC(=O)[C@H](CS)NC(=O)[C@H](C)NC(=O)[C@H](Cc1ccccc1)NC(=O)CNC(=O)[C@H](CCCNC(=N)N)NC(=O)[C@@H]1CCCN1C(=O)[C@H](C)NC(=O)[C@@H](N)CCSC)[C@@H](C)O)C(=O)N[C@@H](CC(=O)O)C(=O)N[C@@H](CC(C)C)C(=O)N1CCC[C@H]1C(=O)N[C@H](C(=O)N[C@@H](CCCCN)C(=O)N[C@@H](CCCNC(=N)N)C(=O)N[C@@H](CCCNC(=N)N)C(=O)N[C@@H](C)C(=O)O)C(C)C` [HN-S7A] (H-MAPRGFACLLLLTSEIDLPVKRRA-OH; N-terminus and C-terminus assumed), for which, in data set [2], the “spontaneous germ cell apoptosis” value is “did not change”.

With `CC[C@H](C)[C@H](NC(=O)[C@H](CCC(=O)O)NC(=O)CNC(=O)[C@@H](NC(=O)[C@H](CC(C)C)NC(=O)[C@H](CC(C)C)NC(=O)[C@H](CC(C)C)NC(=O)[C@H](CC(C)C)NC(=O)[C@H](CS)NC(=O)[C@H](CO)NC(=O)[C@H](C)NC(=O)CNC(=O)[C@H](CCCNC(=N)N)NC(=O)[C@@H]1CCCN1C(=O)[C@H](C)NC(=O)[C@@H](N)CCSC)[C@@H](C)O)C(=O)N[C@@H](CC(=O)O)C(=O)N[C@@H](CC(C)C)C(=O)N1CCC[C@H]1C(=O)N[C@H](C(=O)N[C@@H](CCCCN)C(=O)N[C@@H](CCCNC(=N)N)C(=O)N[C@@H](CCCNC(=N)N)C(=O)N[C@@H](C)C(=O)O)C(C)C` [HNG-F6A] (H-MAPRGASCLLLLTGEIDLPVKRRA-OH; N-terminus and C-terminus assumed), in data set [2], the “spontaneous germ cell apoptosis” value is given as “did not change”.

On to `CC[C@H](C)[C@H](NC(=O)[C@H](CCC(=O)O)NC(=O)[C@H](CO)NC(=O)[C@@H](NC(=O)[C@H](CC(C)C)NC(=O)[C@H](CC(C)C)NC(=O)[C@H](CC(C)C)NC(=O)[C@H](CC(C)C)NC(=O)[C@H](CS)NC(=O)[C@H](CO)NC(=O)[C@H](Cc1ccccc1)NC(=O)CNC(=O)[C@H](CCCNC(=N)N)NC(=O)[C@@H]1CCCN1C(=O)[C@H](C)NC(=O)[C@@H](N)CCSC)[C@@H](C)O)C(=O)N[C@@H](CC(=O)O)C(=O)N[C@@H](CC(C)C)C(=O)N1CCC[C@H]1C(=O)N[C@H](C(=O)N[C@@H](CCCCN)C(=O)N[C@@H](CCCNC(=N)N)C(=O)N[C@@H](CCCNC(=N)N)C(=O)N[C@@H](C)C(=O)O)C(C)C` [HN], for which the “germ cell apoptosis compared to control” value in data set [3] is “no significant effect”. In data set [2], the “spontaneous germ cell apoptosis” value is “did not change”. The “germ cell apoptosis compared with control” value in data set [1] (HN 10 μg/mL alone or DOX 10 μM (high dose) alone) is reported as “no significant effect”. Also, in data set [4], the intratesticular testosterone levels entry was “no significant effects” and the serum testosterone levels result is given as “no significant effects”.
